Measurements published in patent publication US8916575B2, “Quinazoline derivatives for the treatment of viral infections and further diseases” (Janssen R&D Ireland, priority 2011, dated 2014).
pEC50: −log10 of the molar value.

Key:
[1] = test system: human TLR7 mutant (dIRR2); assay: TLR7 mutant (deletion in second leucine-rich repeat) NFκB-luc cellular reporter assay; format: cell-based; set-up: unit not given here; settings: HEK293 NFκB-luc reporter, mutant TLR7, 6 hours incubation
Experimental: (§1) The ability of compounds to activate human TLR7 and/or TLR8 was assessed in a cellular reporter assay using HEK293 cells transiently transfected with a TLR7 or TLR8 expression vector and NFκB-luc reporter construct. In one instance the TLR expression construct expresses the respective wild type sequence or a mutant sequence comprising a deletion in the second leucine-rich repeat of the TLR.
(§2) Briefly, HEK293 cells were grown in culture medium (DMEM supplemented with 10% FCS and 2 mM Glutamine). For transfection of cells in 10 cm dishes, cells were detached with Trypsin-EDTA, transfected with a mix of CMV-TLR7 or TLR8 plasmid (750 ng), NFκB-luc plasmid (375 ng) and a transfection reagent and incubated 24 hours at 37° C. in a humidified 5% CO2 atmosphere. Transfected cells were then detached with Trypsin-EDTA, washed in PBS and resuspended in medium to a density of 1.67×10^5 cells/mL. Thirty microliters of cells were then dispensed into each well in 384-well plates, where 10 μL of compound in 4% DMSO was already present. Following 6 hours incubation at 37° C., 5% CO2, the luciferase activity was determined by adding 15 μl of Steady Lite Plus substrate (Perkin Elmer) to each well and readout performed on a ViewLux ultraHTS microplate imager (Perkin Elmer). Dose response curves were generated from measurements performed in quadruplicates. Lowest effective concentrations (LEC) values, defined as the concentration that induces an effect which is at least two fold above the standard deviation of the assay, were determined for each compound.

[2] = test system: human TLR8 mutant (dIRR2); assay: TLR8 mutant (deletion in second leucine-rich repeat) NFκB-luc cellular reporter assay; format: cell-based; set-up: unit not given here; settings: HEK293 NFκB-luc reporter, mutant TLR8, 6 hours incubation
Experimental: as §1, §2

[3] = test system: HCV replicon (Huh-7 luc/neo cells); assay: Suppression of HCV replicon replication by conditioned media from PBMC; format: cell-based, HCV type 1b; settings: Hepatitis C virus, compound concentration applied to PBMCs giving 50% reduction of replicon luciferase activity, read-out: PBMC-HUH7_EC50
Experimental: Activation of human TLR7 results in robust production of interferon by plasmacytoid dendritic cells present in human blood. The potential of compounds to induce interferon was evaluated by looking at the antiviral activity in the HCV replicon system upon incubation with conditioned media from peripheral blood mononuclear cells (PBMC). The HCV replicon assay is based on a bicistronic expression construct, as described by Lohmann et al. (Science (1999) 285: 110-113; Journal of Virology (2003) 77: 3007-15 3019) with modifications described by Krieger et al. (Journal of Virology (2001) 75: 4614-4624). The assay utilized the stably transfected cell line Huh-7 luc/neo harboring an RNA encoding a bicistronic expression construct comprising the wild type NS3-NS5B regions of HCV type 1b translated from an Internal Ribosome Entry Site (IRES) from encephalomyocarditis virus (EMCV), preceded by a reporter gene (Firefly-luciferase) and a selectable marker gene (neoR, neomycine phosphotransferase). The construct is flanked by 5′ and 3′ NTRs (non-translated regions) from HCV type 1b. Continued culture of the replicon cells in the presence of G418 (neoR) is dependent on the replication of the HCV RNA. The stably transfected replicon cells that replicate HCV RNA autonomously and to high levels, encoding inter alia luciferase, were used for profiling of the conditioned cell culture media.
Briefly, PBMCs were prepared from buffy coats of at least two donors using a standard Ficoll centrifugation protocol. Isolated PBMCs were resuspended in RPMI medium supplemented with 10% human AB serum and 2×10^5 cells/well were dispensed into 384-well plates containing compounds (70 μL total volume). After overnight incubation, 10 μL of supernatant was transferred to 384-well plates containing 2.2×10^3 replicon cells/well in 30 μL (plated the day before). Following 24 hours of incubation, replication was measured by assaying luciferase activity using 40 μL/well Steady Lite Plus substrate (Perkin Elmer) and measured with ViewLux ultraHTS microplate imager (Perkin Elmer). The inhibitory activity of each compound on the Huh7-luc/neo cells were reported as EC50 values, defined as the compound concentration applied to the PBMCs resulting in a 50% reduction of luciferase activity which in turn indicates the degree of replication of the replicon RNA on transfer of a defined amount of PBMC culture medium. Recombinant interferon α-2a (Roferon-A) was used as a standard control compound.

Compound	TLR7-dIRR2_LEC [1]	TLR8-dIRR2_LEC [2]	pEC50 [3]
CCCCNc1nc(N)nc2cc(OC)c(OC)cc12 [Compound 1]	0.4	0.6	5.72
CCCC[C@@H](CCO)Nc1nc(N)nc2cc(OC)c(OC)cc12 [Compound 3]	0.9	2.4	6.22
